In patent US20240307325A1, “COMPOUNDS, COMPOSITIONS, AND METHODS FOR TREATING OR AMELIORATING NONALCOHOLIC FATTY LIVER DISEASE AND RELATED DISEASES OR DISORDERS” (Thomas Jefferson University, priority 2021, published 2024):

What was measured:
HFD fed mice = test: High fat diet-induced hepatic steatosis and whitening of brown adipose tissue in mice; type: in vivo; details: versus vehicle, H&E staining
Excerpt: FIG. 6A illustrate certain aspects of the study design. […] FIG. 6B show H&E staining images of liver from mice in FIG. 6A. […] Representative images from H&E-stained BAT of mice after an 8-week HFD. Images taken at 14×, scalebar=200 um.
(§1) Refer to FIGS. 5 and 6A-6C, pharmacological inhibition of Sigma1 phenocopy certain aspects of Sigma1 knockdown. […] The small molecule inhibitor IPAG also eliminate oleic acid, cholesterol, and glucose induced lipid droplets by lipophagy (FIG. 5).

Sigma1 = Sigma1 (Homo sapiens, UniProt Q99720); details: read-out: Ki (binds Sigma1)
Sequence of Sigma1 (Q99720 whole entry): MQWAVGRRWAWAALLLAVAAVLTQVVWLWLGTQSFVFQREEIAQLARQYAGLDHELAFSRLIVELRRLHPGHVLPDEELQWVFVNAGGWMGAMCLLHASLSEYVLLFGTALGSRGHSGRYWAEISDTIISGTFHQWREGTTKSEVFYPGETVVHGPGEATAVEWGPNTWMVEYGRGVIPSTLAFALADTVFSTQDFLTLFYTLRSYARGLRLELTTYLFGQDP

CEREP Safety 44 panel = CEREP Safety 44 panel screen
Oral bioavailability = details: in vivo
IL-17 = test: Pro-inflammatory cytokine levels in HT-29 cells: IL-17; type: cell-based, human
Excerpt: (§2) The fibrosis associated pro-inflammatory cytokines include soluble IL-6, TNFα, and IL-17, which are contributors to the progression of NAFLD to NASH with fibrosis.

liver = details: even at doses that exceed the concentrations proposed herein; cited from earlier work
TNFα = test: Pro-inflammatory cytokine levels in HT-29 cells: TNFα; type: cell-based, human
Excerpt: as §2

mouse = test: Tumor xenograft experiments with daily oral dosing: tolerability; type: in vivo; details: daily oral dosing extended beyond 4 weeks
lipid droplets = test: Oleic acid, cholesterol and glucose induced lipid droplets; type: cell-based; details: by lipophagy
Excerpt: as §1

LNCaP cells = test: DHT-induced lipid droplet formation and accumulation in LNCaP cells (confocal, HCS-LipidTox stain); type: cell-based; details: 72 h 1 nM DHT, compound 10 uM for the final 16 hours
Experimental: FIGS. 4A-4B illustrate the finding that Sigma1 (σ1) knockdown by transduction of SIGMAR1 targeted shRNA using a lentiviral vector abrogates lipid droplet (LD) accumulation, in accordance with some embodiments. FIG. 4A: Confocal micrographs of LNCaP cells treated with 72 hours (72 h) with dihydrotestosterone (DHT) to induce the formation and accumulation of LDs. Non-specific Control shRNA was compared to SIGMAR1 transcript selective shRNAs in lentiviral vectors. σ1 shR #4=MISSION/SigmaAldrich clone TRCN0000061010: σ1 shR #5=MISSION/SigmaAldrich clone TRCN0000061008. White boxes indicate areas magnified and shown immediately below. Note nearly complete elimination of LDs. FIG. 4B: Immunoblot confirming knockdown of Sigma1 by lentiviral Sigma1 (σ1) shRNAs. LDs are stained with HCS-LipidTox fluorescent stain in red. Blue DAPI stained nuclei.
FIG. 5 illustrates the finding that pharmacological Sigma1 modulator/inhibitor 1-(4-Iodophenyl)-3-(2-adamantyl)guanidine (IPAG) eliminates lipid droplets (LDs), in accordance with some embodiments. Confocal micrographs of LNCaP cells treated with 72 hours (72 h) with 1 nM dihydrotestosterone (DHT) to induce the formation and accumulation of LDs. In the far right panel, the LNCaP cells were treated with a prototypic Sigma1 selective small molecule compound, IPAG (10 uM), for the final 16 hours of the 72 h DHT treatment period. […]

| SMILES | level of whitening of brown adipose tissue (HFD fed mice; HFD fed mice (8-week HFD), oral) | level of liver fat (HFD fed mice; HFD fed mice, oral (PO 3 days per week)) | Ki (Sigma1) [nM] | off-target liabilities (CEREP Safety 44 panel) | oral bioavailability (Oral bioavailability) | level of IL-17 (IL-17) | liver toxicity (liver) | level of TNFα (TNFα) | changes in mouse behavior (mouse) | changes in mouse body weight (mouse) | oleic acid, cholesterol, and glucose induced lipid droplets (lipid droplets) | lipid droplets (LDs) (LNCaP cells) |
| --- | --- | --- | --- | --- | --- | --- | --- | --- | --- | --- | --- | --- |
| N=C(NCCCOc1ccc(F)cc1)Nc1ccc(Cl)cc1 [CT-189, 1-(3-(4-fluorophenoxy)propyl)-3-(4-chlorophenyl)guanidine] | significantly reduced | significantly reduced | 38 | limited off-target liabilities | orally bioavailable | suppresses levels | does not induce liver toxicity | suppresses levels | no detectable changes | no detectable changes |  |  |
| N=C(Nc1ccc(I)cc1)NC1C2CC3CC(C2)CC1C3 (stereo not drawn) [IPAG, 1-(4-Iodophenyl)-3-(2-adamantyl)guanidine] |  |  |  |  |  |  |  |  |  |  | eliminate | eliminates |
